One assay deals with GSK3alpha (Homo sapiens, UniProt P49840). The assay can be described thus: GSK3alpha assay (same as the GSK3beta assay, GSK3alpha 0.25 ng/μl). The format is biochemical. Conditions: −log IC50 (M); given as ranges (>8; 7-8; <7); read-out: pIC50 (GSK3alpha) (converted). The method, then:
(§1) GSK3beta assays were performed at room temperature in a 100 μl reaction volume of 25 mM Tris (ph 7.4) containing 10 mM MgCl2.6H2O 1 mM DTT, 0.1 mg/ml BSA, 5% glyceol and containing 5.7 ng/μl GSK3β, 5 μM biotinylated phosphorylated CREB peptide, 1 μM APT, 0.85 μCi/ml ATP-P^33 and a suitable amount of a test compound of formula (I). After one hour, the reaction was terminated by adding 70 μl of Stop mix (0.1 mM APT, 5 mg/ml streptavidin coated PVT SPA bead pH 11.0). The beads to which the phosphorylated CREB peptide is attached were allowed to settle overnight and the radioactivity of the beads was counted in a microtiterplate scintillation counter and compared with the results obtained in a control experiment (without the presence of a test compound) in order to determine the percentage of GSK3β inhibition. The IC50 value, i.e. the concentration (M) of the test compound at which 50% of GSK3β is inhibited, was calculated from the dose response curve obtained by performing the above-described GSKK3β assay in the presence of different amounts of the test compound.
The GSK3alpha assay was performed in the same way as described above for the GSK3beta assay except for the concentration of GSK3alpha which is 0.25 ng/μl.

For the next assay, the target named is GSK3β (Homo sapiens, UniProt P49841). The assay can be described thus: GSK3beta assay (SPA, biotinylated phosphorylated CREB peptide, ATP-P33). In kind it is biochemical. Conditions: −log IC50 (M); given as ranges (>8; 7-8; <7); read-out: pIC50 (GSK3beta) (converted). The method, then: as §1
Chain of GSK3β (P49841 whole entry, species assumed): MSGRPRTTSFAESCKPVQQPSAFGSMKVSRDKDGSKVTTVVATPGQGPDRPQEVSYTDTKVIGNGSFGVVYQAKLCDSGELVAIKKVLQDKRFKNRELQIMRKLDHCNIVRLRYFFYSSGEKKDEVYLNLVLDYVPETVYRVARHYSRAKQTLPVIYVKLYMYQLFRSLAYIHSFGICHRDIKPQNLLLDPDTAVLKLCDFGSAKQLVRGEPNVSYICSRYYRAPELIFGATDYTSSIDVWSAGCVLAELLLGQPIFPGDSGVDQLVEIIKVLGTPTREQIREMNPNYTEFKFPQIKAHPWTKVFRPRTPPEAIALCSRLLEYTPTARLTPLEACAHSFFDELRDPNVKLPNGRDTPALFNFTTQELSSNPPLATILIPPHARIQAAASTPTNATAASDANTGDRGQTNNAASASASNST

Chain of GSK3alpha (P49840 whole entry, species assumed): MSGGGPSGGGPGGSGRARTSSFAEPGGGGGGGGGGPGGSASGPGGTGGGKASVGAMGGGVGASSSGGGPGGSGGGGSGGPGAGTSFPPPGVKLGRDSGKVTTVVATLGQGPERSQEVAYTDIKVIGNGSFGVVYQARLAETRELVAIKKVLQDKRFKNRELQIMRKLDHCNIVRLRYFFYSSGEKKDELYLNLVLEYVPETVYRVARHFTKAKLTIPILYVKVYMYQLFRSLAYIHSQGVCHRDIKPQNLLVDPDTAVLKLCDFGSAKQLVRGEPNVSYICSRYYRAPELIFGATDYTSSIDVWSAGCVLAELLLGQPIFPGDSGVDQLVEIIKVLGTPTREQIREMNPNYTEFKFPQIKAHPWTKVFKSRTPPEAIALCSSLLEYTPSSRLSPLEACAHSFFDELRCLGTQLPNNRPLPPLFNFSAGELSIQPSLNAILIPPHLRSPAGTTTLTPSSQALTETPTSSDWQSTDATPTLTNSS

Turning to `Fc1cccc(-n2nnc3cnc(Nc4ccc(CNCC(F)(F)F)cc4)nc32)c1` [Compound 306], the IC50 on GSK3alpha and on GSK3β was below 1e-08 M in each case.
Turning to `OCCc1ccc(-n2nnc3cnc(Nc4ccc(F)cc4)nc32)cc1` [Compound 291], the IC50 on GSK3alpha was below 1e-08 M; at GSK3β, 1e-08 to 1e-07 M.
In the case of `N#CCc1cccc(-n2nnc3cnc(Nc4ccc(CCN)cc4)nc32)c1` [Compound 317], the IC50 at GSK3alpha and on GSK3β was below 1e-08 M each time.
For `CC(=O)c1cccc(Nc2ncc3nnn(-c4ccccc4)c3n2)c1` [Compound 60], the IC50 at GSK3alpha and on GSK3β was below 1e-08 M throughout.
Regarding `CSc1cccc(Nc2ncc3nnn(-c4cccc(F)c4)c3n2)c1` [Compound 122], the IC50 on GSK3alpha and on GSK3β was below 1e-08 M each time.
With `O=S(=O)(CCO)c1cccc(Nc2ncc3nnn(-c4cccc(F)c4)c3n2)c1` [Compound 77], the IC50 on GSK3alpha and on GSK3β was below 1e-08 M in each case.
Regarding `COCC(=O)NCc1cccc(-n2nnc3cnc(Nc4cccc(NC(C)=O)c4)nc32)c1` [Compound 156], the IC50 on GSK3alpha and at GSK3β was below 1e-08 M throughout.
Regarding `N#CCc1cccc(-n2nnc3cnc(Nc4ccc(C(N)=O)cc4)nc32)c1` [Compound 274], the IC50 on GSK3alpha and on GSK3β was below 1e-08 M each time.
As for `COc1cccc(-n2nnc3cnc(Nc4cccc(C(C)O)c4)nc32)c1` (stereo not drawn) [Compound 43], the IC50 on GSK3alpha and at GSK3β was below 1e-08 M each time.
Take `CCOc1cccc(Nc2ncc3nnn(-c4cccc(F)c4)c3n2)c1` [Compound 23]: the IC50 on GSK3alpha and at GSK3β was below 1e-08 M each time.
Turning to `COCc1cccc(-n2nnc3cnc(Nc4ccc(C(=O)O)c(OC)c4)nc32)c1` [Compound 304], the IC50 on GSK3alpha and on GSK3β was below 1e-08 M throughout.
Consider `COc1ccc(Nc2ncc3nnn(-c4cccc(CCO)c4)c3n2)cn1` [Compound 173], for which the IC50 on GSK3alpha and on GSK3β was below 1e-08 M in each case.
As to `COCc1cccc(Nc2ncc3nnn(-c4ccccc4)c3n2)c1` [Compound 61], the IC50 on GSK3alpha and on GSK3β was below 1e-08 M each time.
Take `COc1cccc(-n2nnc3cnc(Nc4cccc(NS(C)(=O)=O)c4)nc32)c1` [Compound 52]: the IC50 on GSK3alpha and on GSK3β was below 1e-08 M in each case.
As to `NC(=O)CNS(=O)(=O)c1cccc(Nc2ncc3nnn(-c4cccc(F)c4)c3n2)c1` [Compound 98], the IC50 at GSK3alpha and on GSK3β was below 1e-08 M throughout.
Regarding `O=C(O)CNC(=O)c1ccc(Nc2ncc3nnn(-c4cccc(CNC(=O)C5CC5)c4)c3n2)cc1` [Compound 205], the IC50 at GSK3alpha and at GSK3β was below 1e-08 M in each case.
`CC(O)c1cccc(Nc2ncc3nnn(-c4cccc(CC#N)c4)c3n2)c1` (stereo not drawn) [Compound 278]: the IC50 on GSK3alpha and at GSK3β was below 1e-08 M throughout.
Turning to `COCc1cccc(-n2nnc3cnc(Nc4cccc(NC(C)=O)c4)nc32)c1` [Compound 81], the IC50 at GSK3alpha and on GSK3β was below 1e-08 M each time.
Regarding `COC(=O)c1cccc(-n2nnc3cnc(Nc4cccc(CNC(C)=O)c4)nc32)c1` [Compound 74], the IC50 on GSK3alpha was below 1e-08 M; at GSK3β, 1e-08 M.
The like results for `NS(=O)(=O)c1ccc(Nc2ncc3nnn(-c4ccccc4)c3n2)cc1` [Compound 37] were, in that order, below 1e-08 M and below 1e-08 M.
In the case of `COCc1cccc(Nc2ncc3nnn(-c4cccc(F)c4)c3n2)c1` [Compound 56], the IC50 at GSK3alpha and at GSK3β was below 1e-08 M in each case.
As to `O=C(O)c1ccc(Nc2ncc3nnn(-c4cccc(F)c4)c3n2)cc1O` [Compound 136], the IC50 at GSK3alpha and on GSK3β was below 1e-08 M throughout.
Consider `OCCc1cccc(Nc2ncc3nnn(-c4cccc(F)c4)c3n2)c1` [Compound 150], for which the IC50 at GSK3alpha and at GSK3β was below 1e-08 M in each case.
In the case of `COCCOc1cccc(-n2nnc3cnc(Nc4ccc(F)cc4)nc32)c1` [Compound 301], the figures for the IC50 at GSK3alpha and on GSK3β were below 1e-08 M and 1e-08 to 1e-07 M, respectively.
The like results for `CS(=O)(=O)Nc1cccc(Nc2ncc3nnn(-c4cccc(CC(=O)O)c4)c3n2)c1` [Compound 180] were, in that order, 1e-08 to 1e-07 M and 1e-08 to 1e-07 M.
The corresponding values for `COc1cc(Nc2ncc3nnn(-c4cccc(CCO)c4)c3n2)ccc1F` [Compound 171] are below 1e-08 M and below 1e-08 M.
Turning to `CC(C)CC(=O)NCc1cccc(-n2nnc3cnc(Nc4ccc(C(=O)O)cc4)nc32)c1` [Compound 193], the IC50 at GSK3alpha and on GSK3β was 1e-08 to 1e-07 M in each case.
For `Oc1cccc(Nc2ncc3nnn(-c4cccc(F)c4)c3n2)c1` [Compound 15], the IC50 is below 1e-08 M at GSK3alpha and 1e-08 M on GSK3β.
For the molecule `COCCNS(=O)(=O)c1cccc(Nc2ncc3nnn(-c4cccc(F)c4)c3n2)c1` [Compound 103], the IC50 at GSK3alpha is below 1e-08 M; on GSK3β it was above 1e-09 M.
The like results for `COCc1cccc(-n2nnc3cnc(Nc4ccc(OC)nc4)nc32)c1` [Compound 133] were, in that order, below 1e-08 M and below 1e-08 M.
The corresponding values for `COc1ccc(Nc2ncc3nnn(-c4cccc(CNC(=O)C5CC5)c4)c3n2)cn1` [Compound 209] are 1e-08 to 1e-07 M and 1e-08 to 1e-07 M.
On to `COCC(=O)NCc1cccc(-n2nnc3cnc(Nc4ccc(S(N)(=O)=O)cc4)nc32)c1` [Compound 174], for which the IC50 at GSK3alpha and on GSK3β was below 1e-08 M in each case.
For `COCc1cccc(-n2nnc3cnc(Nc4cccc(C(C)=O)c4)nc32)c1` [Compound 86], the IC50 on GSK3alpha and on GSK3β was below 1e-08 M in each case.
With `CC(=O)NCc1cccc(-n2nnc3cnc(Nc4ccc(C(=O)O)cc4)nc32)c1` [Compound 126], the IC50 on GSK3alpha and on GSK3β was below 1e-08 M throughout.
In the case of `COCc1cccc(-n2nnc3cnc(Nc4ccc(S(N)(=O)=O)cc4)nc32)c1` [Compound 146], the IC50 at GSK3alpha and at GSK3β was below 1e-08 M throughout.
`NS(=O)(=O)c1cccc(Nc2ncc3nnn(-c4cccc(CO)c4)c3n2)c1` [Compound 36]: the IC50 at GSK3alpha and on GSK3β was below 1e-08 M each time.
Consider `CC(=O)Nc1cccc(Nc2ncc3nnn(-c4cccc(F)c4)c3n2)c1` [Compound 11], for which the IC50 at GSK3alpha and at GSK3β was below 1e-08 M each time.
With `NC(=O)c1cccc(Nc2ncc3nnn(-c4cccc(C(N)=O)c4)c3n2)c1` [Compound 39], the IC50 at GSK3alpha and at GSK3β was below 1e-08 M each time.
Turning to `COCCOc1cccc(-n2nnc3cnc(Nc4ccc(CCN)cc4)nc32)c1` [Compound 319], the IC50 on GSK3alpha and at GSK3β was 1e-08 to 1e-07 M each time.
On to `N#CCc1cccc(-n2nnc3cnc(Nc4ccc(CN)cc4)nc32)c1` [Compound 313], for which the IC50 at GSK3alpha and on GSK3β was below 1e-08 M throughout.
Turning to `COCc1cccc(-n2nnc3cnc(Nc4ccc(CN)cc4)nc32)c1` [Compound 315], the IC50 on GSK3alpha and at GSK3β was below 1e-08 M throughout.
In the case of `COCc1cccc(-n2nnc3cnc(Nc4ccc(C(=O)N(C)C)cc4)nc32)c1` [Compound 334], the IC50 at GSK3alpha and at GSK3β was below 1e-08 M each time.
`CC(=O)NCc1cccc(-n2nnc3cnc(Nc4cccc(S(C)(=O)=O)c4)nc32)c1` [Compound 113]: the IC50 at GSK3alpha and at GSK3β was below 1e-08 M throughout.
For the molecule `O=C(O)c1ccc(Nc2ncc3nnn(-c4cccc(F)c4)c3n2)cc1Cl` [Compound 137], the IC50 at GSK3alpha and on GSK3β was below 1e-08 M in each case.
For `COCCOCc1cccc(-n2nnc3cnc(Nc4ccc(CCO)cc4)nc32)c1` [Compound 289], the IC50 on GSK3alpha and on GSK3β was below 1e-08 M throughout.
On to `CS(=O)(=O)Nc1cccc(Nc2ncc3nnn(-c4cccc(CC(N)=O)c4)c3n2)c1` [Compound 273], for which the IC50 on GSK3alpha and on GSK3β was below 1e-08 M throughout.
For the molecule `N#CCc1cccc(-n2nnc3cnc(Nc4cccc(CCO)c4)nc32)c1` [Compound 276], the IC50 on GSK3alpha and on GSK3β was below 1e-08 M throughout.
On to `CCOc1cc(Nc2ncc3nnn(-c4cccc(CCO)c4)c3n2)ccc1C(=O)O` [Compound 255], for which the IC50 on GSK3alpha and on GSK3β was below 1e-08 M each time.
As for `COc1cccc(-n2nnc3cnc(Nc4cccc(NC(C)=O)c4)nc32)c1` [Compound 42], the IC50 on GSK3alpha and at GSK3β was below 1e-08 M in each case.
On to `COCC(=O)NCc1cccc(-n2nnc3cnc(Nc4ccc(NC(C)=O)c(C(=O)OC)c4)nc32)c1` [Compound 157], for which the IC50 on GSK3alpha and on GSK3β was below 1e-08 M each time.
On to `COCCOc1cccc(-n2nnc3cnc(Nc4ccc(C(=O)N(C)C)cc4)nc32)c1` [Compound 326], for which the IC50 on GSK3alpha and on GSK3β was 1e-08 to 1e-07 M each time.
For `COc1ccc(Nc2ncc3nnn(-c4cccc(F)c4)c3n2)cn1` [Compound 91], the IC50 on GSK3alpha and at GSK3β was below 1e-08 M throughout.
Take `Fc1cccc(-n2nnc3cnc(Nc4cccc(OC(F)(F)F)c4)nc32)c1` [Compound 22]: the IC50 at GSK3alpha and on GSK3β was below 1e-08 M in each case.
As for `COCCOCc1cccc(-n2nnc3cnc(Nc4ccc(C(N)=O)cc4)nc32)c1` [Compound 286], the IC50 on GSK3alpha and at GSK3β was below 1e-08 M in each case.
